Source: ChEMBL document CHEMBL1154091, “Reaction of the antitumor antibiotic olivomycin I with aryl diazonium salts. Synthesis, cytotoxic and antiretroviral potency of 5-aryldiazenyl-6-O-deglycosyl derivatives of olivomycin I” (Bioorg Med Chem, 2009)
pEC50, pIC50: −log10 of the molar value. Active and inactive are the calls of the source. The calls are words filed in the database; no cut-off is given here.

How the values were obtained:
L1210 = experiment: Antiproliferative against mouse L1210 cells after 48 hrs; type: functional, cell-based; details: L1210, 48 h
[1] = Antiproliferative against human Molt4/C8 cells after 72 hrs; type: functional, cell-based; details: MOLT-4, 72 h
CCRF-CEM = experiment: Antiproliferative against human CEM cells after 72 hrs; type: cell-based
[2] = target: T1, DNA topoisomerase 1 (Homo sapiens) (UniProt P11387); experiment: Inhibition of DNA topoisomerase 1 assessed as inhibition of unwinding of supercoiled pBR322 DNA at 20 uM by agarose gel electrophoresis
T1 sequence (whole entry): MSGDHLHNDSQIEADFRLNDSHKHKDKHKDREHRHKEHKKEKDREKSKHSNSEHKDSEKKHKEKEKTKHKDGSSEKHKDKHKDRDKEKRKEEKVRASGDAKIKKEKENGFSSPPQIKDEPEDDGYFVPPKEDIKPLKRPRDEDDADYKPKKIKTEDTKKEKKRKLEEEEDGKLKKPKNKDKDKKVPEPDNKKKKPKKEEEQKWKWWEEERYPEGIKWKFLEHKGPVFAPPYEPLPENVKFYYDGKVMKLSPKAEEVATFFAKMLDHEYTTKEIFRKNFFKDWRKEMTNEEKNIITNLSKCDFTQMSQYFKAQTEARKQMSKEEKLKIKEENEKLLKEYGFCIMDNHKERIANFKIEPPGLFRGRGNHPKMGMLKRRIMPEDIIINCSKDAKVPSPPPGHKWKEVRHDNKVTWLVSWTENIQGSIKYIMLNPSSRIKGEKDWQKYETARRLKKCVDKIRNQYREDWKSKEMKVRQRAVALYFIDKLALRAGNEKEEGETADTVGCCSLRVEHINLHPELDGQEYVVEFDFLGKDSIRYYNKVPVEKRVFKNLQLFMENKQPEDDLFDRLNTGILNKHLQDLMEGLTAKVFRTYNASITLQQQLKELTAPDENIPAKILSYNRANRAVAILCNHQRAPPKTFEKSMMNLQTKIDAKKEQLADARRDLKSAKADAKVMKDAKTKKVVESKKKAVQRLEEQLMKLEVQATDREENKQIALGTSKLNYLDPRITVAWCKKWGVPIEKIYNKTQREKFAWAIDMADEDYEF

[3] = system: Human immunodeficiency virus 1; experiment: Antiviral activity against HIV1 3B infected in human CEM cells assessed as drug level required for protection against virus-induced cytopathogenicity after 4 days; type: functional, organism-based; details: Human immunodeficiency virus 1, 3B, CCRF-CEM, 96 h
[4] = system: Human immunodeficiency virus 2; experiment: Antiviral activity against HIV2 ROD infected in human CEM cells assessed as drug level required for protection against virus-induced cytopathogenicity after 4 days; type: functional, organism-based; details: Human immunodeficiency virus 2, ISOLATE ROD, CCRF-CEM, 96 h
[5] = Selectivity index, ratio of IC50 for human CEM cells to EC50 for HIV1 3B; type: toxicity, cell-based, CCRF-CEM; details: read-out: Ratio IC50/EC50
Human alphaherpesvirus 1 = experiment: Antiviral activity against HSV1 infected in HEL cells at subtoxic concentration; type: functional, organism-based
Human alphaherpesvirus 2 = experiment: Antiviral activity against HSV2 infected in HEL cells at subtoxic concentration; type: functional, organism-based
Vaccinia virus = experiment: Antiviral activity against Vaccinia virus infected in HEL cells at subtoxic concentration; type: functional, organism-based; details: Orthopoxvirus vaccinia
[6] = system: Vesicular stomatitis virus; experiment: Antiviral activity against VSV infected in HEL cells at subtoxic concentration; type: functional, organism-based
[7] = system: Vesicular stomatitis virus; experiment: Antiviral activity against VSV infected in human HeLa cells at subtoxic concentration; type: functional, organism-based
Coxsackievirus B4 [8] = experiment: Antiviral activity against Coxsackievirus B4 infected in human HeLa cells at subtoxic concentration; type: functional, organism-based
[9] = system: Respiratory syncytial virus; experiment: Antiviral activity against Respiratory syncytial virus infected in human HeLa cells at subtoxic concentration; type: functional, organism-based
Human respirovirus 3 = experiment: Antiviral activity against Parainfluenza virus 3 infected in african green monkey Vero cells at subtoxic concentration; type: functional, organism-based
[10] = system: Mammalian orthoreovirus 1; experiment: Antiviral activity against Reovirus 1 infected in african green monkey Vero cells at subtoxic concentration; type: functional, organism-based
Sindbis virus = experiment: Antiviral activity against Sindbis virus infected in african green monkey Vero cells at subtoxic concentration; type: functional, organism-based
Coxsackievirus B4 [11] = experiment: Antiviral activity against Coxsackievirus B4 infected in african green monkey Vero cells at subtoxic concentration; type: functional, organism-based
Punta Toro virus = experiment: Antiviral activity against Punta Toro virus infected in african green monkey Vero cells at subtoxic concentration; type: functional, organism-based
Influenza A virus = experiment: Antiviral activity against influenza A virus H1N1:H3N2 infected in […] cells at subtoxic concentration; type: functional, organism-based
Influenza B virus = experiment: Antiviral activity against influenza B virus infected in […] cells at subtoxic concentration; type: functional, organism-based
K562 = experiment: Antiproliferative against human K562 cells after 72 hrs; type: functional, cell-based; details: K562, 72 h
HCT-116 = experiment: Antiproliferative against human HCT116 cells after 72 hrs; type: functional, cell-based; details: HCT-116, 72 h
[12] = target: T1, DNA topoisomerase 1 (Homo sapiens); experiment: Inhibition of DNA topoisomerase 1 assessed as inhibition of unwinding of supercoiled pBR322 DNA at 10 to 20 uM by agarose gel electrophoresis
[13] = target: T1, DNA topoisomerase 1 (Homo sapiens); experiment: Inhibition of DNA topoisomerase 1 assessed as partial inhibition of unwinding of supercoiled pBR322 DNA at 5 uM by agarose gel electrophoresis
[14] = target: T1, DNA topoisomerase 1 (Homo sapiens); experiment: Inhibition of DNA topoisomerase 1 assessed as partial inhibition of unwinding of supercoiled pBR322 DNA at 20 uM by agarose gel electrophoresis

Structure (SMILES)	pIC50 (L1210)	pIC50 [1]	pIC50 (CCRF-CEM)	Activity [2]	pEC50 [3]	pEC50 [4]	selectivity ratio [5]	Activity (Human alphaherpesvirus 1)	Activity (Human alphaherpesvirus 2)	Activity (Vaccinia virus)	Activity [6]	Activity [7]	Activity (Coxsackievirus B4 [8])	Activity [9]	Activity (Human respirovirus 3)	Activity [10]	Activity (Sindbis virus)	Activity (Coxsackievirus B4 [11])	Activity (Punta Toro virus)	Activity (Influenza A virus)	also measured
CO[C@H](C(=O)[C@@H](O)[C@@H](C)O)[C@@H]1Cc2cc3c(/N=N/c4ccc(S(N)(=O)=O)cc4)c(O)cc(O)c3c(O)c2C(=O)[C@H]1O[C@H]1C[C@@H](O[C@H]2C[C@@H](O[C@H]3C[C@](C)(O)[C@@H](OC(=O)C(C)C)[C@H](C)O3)[C@H](O)[C@@H](C)O2)[C@H](O)[C@@H](C)O1	< 4.00	< 4.00	< 4.00	inactive	4.30	< 4.00	> 2	inactive	inactive	inactive	inactive	inactive	inactive	inactive	inactive	inactive	inactive	inactive	inactive	inactive	Activity (Influenza B virus): inactive
CO[C@@H]1[C@H](O)C[C@@H](O[C@@H]2C[C@H](Oc3cc(OC(C)=O)c4c(O)c5c(cc4c3)C[C@@H]([C@H](OC)C(=O)[C@@H](O)[C@@H](C)O)[C@H](O[C@H]3C[C@@H](O[C@H]4C[C@@H](O[C@H]6C[C@](C)(O)[C@@H](OC(=O)C(C)C)[C@H](C)O6)[C@H](O)[C@@H](C)O4)[C@H](O)[C@@H](C)O3)C5=O)O[C@H](C)[C@@H]2OC(C)=O)O[C@@H]1C	8.10	7.66	8.62	–	–	–	–	–	–	–	–	–	–	–	–	–	–	–	–	–	–
CO[C@@H]1[C@H](O)C[C@@H](O[C@@H]2C[C@H](Oc3cc(O)c4c(O)c5c(cc4c3)C[C@@H]([C@H](OC)C(=O)[C@@H](O)[C@@H](C)O)[C@H](O[C@H]3C[C@@H](O[C@H]4C[C@@H](O[C@H]6C[C@](C)(O)[C@@H](OC(=O)C(C)C)[C@H](C)O6)[C@H](O)[C@@H](C)O4)[C@H](O)[C@@H](C)O3)C5=O)O[C@H](C)[C@@H]2OC(C)=O)O[C@@H]1C [OLIVOMYCIN I]	7.47	8.40	8.60	–	8.30	8.40	–	–	–	–	–	–	–	–	–	–	–	–	–	–	pIC50 (K562): 7.36; pIC50 (HCT-116): 7.26; Activity [12]: Active; Activity [13]: Active
CO[C@H](C(=O)[C@@H](O)[C@@H](C)O)[C@@H]1Cc2cc3c(/N=N/c4ccccc4)c(O)cc(O)c3c(O)c2C(=O)[C@H]1O[C@H]1C[C@@H](O[C@H]2C[C@@H](O[C@H]3C[C@](C)(O)[C@@H](OC(=O)C(C)C)[C@H](C)O3)[C@H](O)[C@@H](C)O2)[C@H](O)[C@@H](C)O1	5.21	5.80	5.74	inactive	7.22	≤ 7.40	30	inactive	inactive	inactive	inactive	inactive	inactive	inactive	inactive	inactive	inactive	inactive	inactive	inactive	Activity (Influenza B virus): inactive
COc1ccc(/N=N/c2c(O)cc(O)c3c(O)c4c(cc23)C[C@@H]([C@H](OC)C(=O)[C@@H](O)[C@@H](C)O)[C@H](O[C@H]2C[C@@H](O[C@H]3C[C@@H](O[C@H]5C[C@](C)(O)[C@@H](OC(=O)C(C)C)[C@H](C)O5)[C@H](O)[C@@H](C)O3)[C@H](O)[C@@H](C)O2)C4=O)cc1	4.70	5.14	4.59	inactive	6.30	≤ 5.40	52	inactive	inactive	inactive	inactive	inactive	inactive	inactive	inactive	inactive	inactive	inactive	inactive	inactive	Activity (Influenza B virus): inactive
CO[C@H](C(=O)[C@@H](O)[C@@H](C)O)[C@@H]1Cc2cc3c(/N=N/c4ccc(Cl)c(Cl)c4)c(O)cc(O)c3c(O)c2C(=O)[C@H]1O[C@H]1C[C@@H](O[C@H]2C[C@@H](O[C@H]3C[C@](C)(O)[C@@H](OC(=O)C(C)C)[C@H](C)O3)[C@H](O)[C@@H](C)O2)[C@H](O)[C@@H](C)O1	5.25	5.72	5.59	Active	6.30	≤ 6.10	5.2	inactive	inactive	inactive	inactive	inactive	inactive	inactive	inactive	inactive	inactive	inactive	inactive	inactive	Activity (Influenza B virus): inactive
CO[C@H](C(=O)[C@@H](O)[C@@H](C)O)[C@@H]1Cc2cc3c(/N=N/c4ccc(C)cc4)c(O)cc(O)c3c(O)c2C(=O)[C@H]1O[C@H]1C[C@@H](O[C@H]2C[C@@H](O[C@H]3C[C@](C)(O)[C@@H](OC(=O)C(C)C)[C@H](C)O3)[C@H](O)[C@@H](C)O2)[C@H](O)[C@@H](C)O1	–	–	–	–	–	–	–	–	–	–	–	–	–	–	–	–	–	–	–	–	pIC50 (K562): 5.70; pIC50 (HCT-116): 5.62; Activity [14]: Active
